How the values were obtained:
Assay in all cases: relative viability (nuclei count vs DMSO), 5 days (fraction); higher = more cells survive
[1] = test system: NCI-H1395
In short: (§1)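 Lung cancer cell lines were seeded in 1536-well plates and dosed by pin tool the next day, with either a single drug or a fixed anchor-drug dose combined with five library-drug doses (not always all listed) spaced in √10 steps. Five days later, one step fixed the cells and stained their nuclei (final 0.05% Triton X-100, 1% formaldehyde, 1 ug/ml Hoechst), and nuclei were counted on 4× images. Relative viability is the nuclei count in treated wells divided by the count in vehicle wells, and each value is the median of duplicate plates.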

[2] = test system: NCI-H1793
In short: as §1

[3] = test system: EMC-BAC-2
In short: as §1

[4] = test system: UMC-11
In short: as §1

[5] = test system: NCI-H2405
In short: as §1

[6] = test system: NCI-H1915
In short: as §1

[7] = test system: NCI-H1792
In short: as §1

[8] = test system: RERF-LC-KJ
In short: as §1

[9] = test system: LCLC-103H
In short: as §1

[10] = test system: NCI-H1437
In short: as §1

[11] = test system: NCI-H2342
In short: as §1

[12] = test system: NCI-H2023
In short: as §1

[13] = test system: NCI-H1651
In short: as §1

[14] = test system: 201T
In short: as §1

[15] = test system: SK-LU-1
In short: as §1

[16] = test system: NCI-H1975
In short: as §1

[17] = test system: ABC-1
In short: as §1

[18] = test system: LOU-NH91
In short: as §1

[19] = test system: HCC-78
In short: as §1

[20] = test system: NCI-H23
In short: as §1

[21] = test system: NCI-H647
In short: as §1

[22] = test system: EPLC-272H
In short: as §1

[23] = test system: NCI-H661
In short: as §1

With CCCCCCCCCCCC1=C(O)C(=O)C=C(O)C1=O [Embelin] + COc1cccc2cc(-c3nc([C@H]4CC[C@H](C(=O)O)CC4)n4ncnc(N)c34)[nH]c12 [OSI-027] (partner 0.5 µM) the relative viability ([1]; first compound 0.08 µM) was 0.657, the relative viability ([1]; first compound 0.8 µM) was 0.702 and the relative viability ([1]; first compound 2.53 µM) was 0.615. The relative viability ([1]; first compound 8 µM) was 0.549, the relative viability ([2]; first compound 0.08 µM) was 0.281 and the relative viability ([2]; first compound 0.8 µM) was 0.367. The relative viability ([2]; first compound 2.53 µM) was 0.237, the relative viability ([2]; first compound 8 µM) was 0.243 and the relative viability ([3]; first compound 0.08 µM) was 0.375. It also gave a relative viability ([3]; first compound 0.8 µM) of 0.47, a relative viability ([3]; first compound 2.53 µM) of 0.349 and a relative viability ([3]; first compound 8 µM) of 0.353. The relative viability ([4]; first compound 0.08 µM) was 0.441, the relative viability ([4]; first compound 0.8 µM) was 0.492 and the relative viability ([4]; first compound 2.53 µM) was 0.511. For the same compound, the relative viability ([4]; first compound 8 µM) was 0.51, the relative viability ([5]; first compound 0.08 µM) was 0.64 and the relative viability ([5]; first compound 0.8 µM) was 0.665. It also gave a relative viability ([5]; first compound 2.53 µM) of 0.659, a relative viability ([5]; first compound 8 µM) of 0.658 and a relative viability ([6]; first compound 0.08 µM) of 0.679. It also gave a relative viability ([6]; first compound 0.8 µM) of 0.707, a relative viability ([6]; first compound 2.53 µM) of 0.602 and a relative viability ([6]; first compound 8 µM) of 0.653. The relative viability ([7]; first compound 0.08 µM) was 0.746, the relative viability ([7]; first compound 0.8 µM) was 0.884 and the relative viability ([7]; first compound 2.53 µM) was 0.711. It also gave a relative viability ([7]; first compound 8 µM) of 0.838, a relative viability ([8]; first compound 0.08 µM) of 0.585 and a relative viability ([8]; first compound 0.8 µM) of 0.529. For the same compound, the relative viability ([8]; first compound 2.53 µM) was 0.545, the relative viability ([8]; first compound 8 µM) was 0.494 and the relative viability ([9]; first compound 0.08 µM) was 0.467. For the same compound, the relative viability ([9]; first compound 0.8 µM) was 0.492, the relative viability ([9]; first compound 2.53 µM) was 0.495 and the relative viability ([9]; first compound 8 µM) was 0.423. It also gave a relative viability ([10]; first compound 0.08 µM) of 0.859, a relative viability ([10]; first compound 0.8 µM) of 1.01 and a relative viability ([10]; first compound 2.53 µM) of 0.934. It also gave a relative viability ([10]; first compound 8 µM) of 0.822, a relative viability ([11]; first compound 0.08 µM) of 0.666 and a relative viability ([11]; first compound 0.8 µM) of 0.59. It also gave a relative viability ([11]; first compound 2.53 µM) of 0.676, a relative viability ([11]; first compound 8 µM) of 0.68 and a relative viability ([12]; first compound 0.08 µM) of 0.377. The relative viability ([12]; first compound 0.8 µM) was 0.468, the relative viability ([12]; first compound 2.53 µM) was 0.385 and the relative viability ([12]; first compound 8 µM) was 0.398. For the same compound, the relative viability ([13]; first compound 0.08 µM) was 0.749, the relative viability ([13]; first compound 0.8 µM) was 0.677 and the relative viability ([13]; first compound 2.53 µM) was 0.801. It also gave a relative viability ([13]; first compound 8 µM) of 0.776, a relative viability ([14]; first compound 0.08 µM) of 0.72 and a relative viability ([14]; first compound 0.8 µM) of 0.883. The relative viability ([14]; first compound 2.53 µM) was 0.746, the relative viability ([14]; first compound 8 µM) was 0.83 and the relative viability ([15]; first compound 0.08 µM) was 0.409. The relative viability ([15]; first compound 0.8 µM) was 0.373, the relative viability ([15]; first compound 2.53 µM) was 0.383 and the relative viability ([15]; first compound 8 µM) was 0.34. The relative viability ([16]; first compound 0.08 µM) was 0.728, the relative viability ([16]; first compound 0.8 µM) was 0.817 and the relative viability ([16]; first compound 2.53 µM) was 0.88. It also gave a relative viability ([16]; first compound 8 µM) of 0.768, a relative viability ([17]; first compound 0.08 µM) of 0.58 and a relative viability ([17]; first compound 0.8 µM) of 0.646. It also gave a relative viability ([17]; first compound 2.53 µM) of 0.472, a relative viability ([17]; first compound 8 µM) of 0.552 and a relative viability ([18]; first compound 0.08 µM) of 0.691. For the same compound, the relative viability ([18]; first compound 0.8 µM) was 0.851, the relative viability ([18]; first compound 2.53 µM) was 0.743 and the relative viability ([18]; first compound 8 µM) was 0.755. It also gave a relative viability ([19]; first compound 0.08 µM) of 0.371, a relative viability ([19]; first compound 0.8 µM) of 0.369 and a relative viability ([19]; first compound 2.53 µM) of 0.343. For the same compound, the relative viability ([19]; first compound 8 µM) was 0.41, the relative viability ([20]; first compound 0.08 µM) was 0.695 and the relative viability ([20]; first compound 0.8 µM) was 0.672. It also gave a relative viability ([20]; first compound 2.53 µM) of 0.582, a relative viability ([20]; first compound 8 µM) of 0.562 and a relative viability ([21]; first compound 0.08 µM) of 0.684. For the same compound, the relative viability ([21]; first compound 0.8 µM) was 0.72, the relative viability ([21]; first compound 2.53 µM) was 0.963 and the relative viability ([21]; first compound 8 µM) was 0.649. The relative viability ([22]; first compound 0.08 µM) was 0.256, the relative viability ([22]; first compound 0.8 µM) was 0.319 and the relative viability ([22]; first compound 2.53 µM) was 0.309. The relative viability ([22]; first compound 8 µM) was 0.255, the relative viability ([23]; first compound 0.08 µM) was 0.763 and the relative viability ([23]; first compound 0.8 µM) was 0.784. It also gave a relative viability ([23]; first compound 2.53 µM) of 0.8 and a relative viability ([23]; first compound 8 µM) of 0.769.

— the supplement of paper PMC10307832
